Assays:
5-HT = test: Biomarker changes after TE initiation (TELEACE): 5-HT; assay type: in vivo, human; details: n=22
Experimental: This example provides the effects of telotristat ethyl treatment on selected patient biomarkers (i.e., u5-HIAA; CgA; 5-HT; and NT-proBNP) in the retrospective, single arm study of Example 4.
The average (SD) duration of documented TE treatment was 12.0 (7.3) months with a median (IQR) of 9.0 (6.8, 15.2) months. In many cases, a patient received a TE dosage of 250 mg three times per day.
The continuous measures of biomarker values pre- and post-TE initiation were described using mean, SD, median, and IQR. The biomarkers were assessed only among patients with complete biomarker assessment results in both pre-TE and post-TE initiation periods. A Wilcoxon signed rank test was used to calculate P-values for the mean change in biomarker value.
Patients with reported biomarker values below, at, or above normal range in pre-TE and post-TE initiation periods were described using proportions and frequencies. The biomarkers were assessed only among patients with complete biomarker assessment results in both pre-TE and post-TE initiation periods. McNemar's test was used to calculate P-values for the differences in paired proportions of patients with values above the upper limit of normal.
To evaluate the relationship between the change in biomarker values (i.e., u5-HIAA; CgA; 5-HT) and the change in tumor progression between the pre- and post-TE periods, Pearson's correlation coefficient was used to assess the correlation between biomarker assessments and tumor sizes and to derive the associated P-values. The correlations were assessed only among patients with complete biomarker assessment results in both pre-TE and post-TE initiation periods. The relationship between biomarker values and tumor sizes during pre-TE and post-TE initiation period was presented using scatterplots.
For the biomarker results below, the pre-TE initiation period is defined as 12 months before the index date (initiation of TE). The assessment closest to the index date during the pre-TE period was reported for each biomarker.
The post-TE initiation period is defined as a period from index date to the earlier of end of treatment with TE or date of chart abstraction. The assessment closest to the date of chart abstraction during the post-TE period was reported for each biomarker.
The data includes patients with reported biomarker values, units, and laboratory ranges during pre- and post-TE initiation periods. It excludes patients who had different biomarker units or laboratory ranges reported pre- and post-TE initiation.
The normal range was defined by reported laboratory lower limit of normal and upper limit of normal.
The Wilcoxon signed rank test was used to calculate P-values for the mean change in biomarker values pre- and post-TE initiation.
Table 5-4 is based on patients who had complete biomarker assessment results (u5-HIAA: N=22; 5-HT: N=22) in both pre-TE and post-TE initiation periods. Correlation analysis was not conducted for CgA and NT-proBNP due to small sample sizes for CgA (n=15) and NT-proBNP (n=2). Pearson's correlation coefficient was used to assess the correlation between biomarker assessments and tumor sizes and to derive the associated P-values. Values have been converted to mg/24 hours based on the following conversion rate: […].

[1] = tested on: human intrahepatic CCA cells CCLP-1; test: Tumor growth study in CCLP-1 subcutaneous xenografts; assay type: in vivo, NOD/SCID mice
Experimental: (§1) The human intrahepatic CCA cells CCLP-1 were cultured in DMEM containing 10% FBS. Animal survival was studied in a peritoneal dissemination model, and a tumor growth study was performed in subcutaneous xenografts using 4-6 weeks old female NOD/SCID mice by injecting 10×10^6 CCLP-1 cells per mouse. Ten days after tumor cell injection, mice were randomized (n=4-7) to receive PBS (control), gemcitabine (50 mg/kg, 2×wk), cisplatin (2.5 mg/kg, 2×wk survival study, 1×wk tumor growth study), nab-paclitaxel (5 mg/kg, 2×wk) or telotristat ethyl (100 mg/kg, 5×wk), for two weeks. In the survival study, mice were monitored daily and euthanized when moribund, and survival was measured from the first day of treatment until death. In the tumor growth study, tumor size was measured twice per week and tumor volume was measured using the formula V=½ (L×W2, with L=length and W=width). Comparative statistics utilized one-way ANOVA, Student's t-test and logrank methods.

[2] = tested on: human intrahepatic CCA cells CCLP-1; test: Animal survival in CCLP-1 peritoneal dissemination model; assay type: in vivo, NOD/SCID mice; details: two weeks therapy: gemcitabine 50 mg/kg 2×wk, cisplatin 2.5 mg/kg 2×wk, nab-paclitaxel 5 mg/kg 2×wk, telotristat ethyl 100 mg/kg 5×wk, controls 47 days
Experimental: as §1

## CCOC(=O)[C@@H](N)Cc1ccc(-c2cc(O[C@H](c3ccc(Cl)cc3-n3ccc(C)n3)C(F)(F)F)nc(N)n2)cc1 [telotristat ethyl, (S)-ethyl 2-amino-3-(4-(2-amino-6-((R)-1-(4-chloro-2-(3-methyl-1H-pyrazol-1-yl)phenyl)-2,2,2-trifluoroethoxy)pyrimidin-4-yl)phenyl)propanoate]
5-HT; IQR 320.0, 700.0, pre-TE 459.5 (389.0, 701.0)
  5-HT Measurement (ng/24 hours) Post-TE Initiation, Median (IQR): 399.5 ng/24 hours
5-HT; pre-TE 0 (0)
  5-HT Below normal range Post-TE, n (%): 0 (0) n (%)
5-HT; pre-TE 1 (4.5)
  5-HT At normal range Post-TE, n (%): 2 (9.1) n (%)
5-HT; pre-TE 21 (95.5), P=0.317
  5-HT Above normal range Post-TE, n (%): 20 (90.9) n (%)
5-HT; pre-TE 648.9 ± 448.1, P=0.026
  5-HT Measurement (ng/24 hours) Post-TE Initiation, Mean ± SD: 533.5 ± 329.2 ng/24 hours
[1]; controls 0.187 g
  tumor weight at the completion of therapy: 0.091 g
[1]; gemcitabine 50 mg/kg 2×wk, cisplatin 2.5 mg/kg 1×wk, nab-paclitaxel 5 mg/kg 2×wk, telotristat ethyl 100 mg/kg 5×wk, two weeks, controls 199 mm^3
  net tumor growth: 93 mm^3
[2]
  animal survival: 52 days
